Common to all, as to format: functional
The subject of test [1] is Staphylococcus aureus. The experiment in a line: Antibacterial activity against methicillin-sensitive Staphylococcus aureus ATCC 25923 after 20 to 24 hrs.
Test [2] deals with Staphylococcus aureus. The experiment in a line: Bactericidal activity against methicillin-sensitive Staphylococcus aureus ATCC 29213 after 24 and 48 hrs.
For the next test, the system named is Enterococcus. The test can be described thus: Antibacterial activity against vancomycin-resistant Enterococcus after 20 to 24 hrs.
Test [3] concerns Staphylococcus aureus. The test can be described thus: Antibacterial activity against methicillin-sensitive Staphylococcus aureus ATCC 29213 after 20 to 24 hrs.
In test [4] the test system is Staphylococcus aureus. The test can be described thus: Antibacterial activity against methicillin-sensitive Staphylococcus aureus ATCC 6538 after 20 to 24 hrs.
In test [5] the test system is Staphylococcus aureus. The experiment in a line: Bactericidal activity against methicillin-sensitive Staphylococcus aureus ATCC 6538 after 24 and 48 hrs.
Test [6] relates to Staphylococcus aureus. The test can be described thus: Antibacterial activity against methicillin-sensitive Staphylococcus aureus ATCC 49775 after 20 to 24 hrs.
Test [7] deals with Staphylococcus aureus. The experiment in a line: Bactericidal activity against methicillin-sensitive Staphylococcus aureus ATCC 49775 after 24 and 48 hrs.
The subject of the next test is Escherichia coli. The experiment in a line: Antibacterial activity against Escherichia coli ATCC 25922 after 20 to 24 hrs.
Test [8] relates to Staphylococcus aureus. The test can be described thus: Antibacterial activity against methicillin-resistant Staphylococcus aureus after 20 to 24 hrs.
Test [9] concerns Staphylococcus aureus. The test can be described thus: Bactericidal activity against methicillin-sensitive Staphylococcus aureus ATCC 25923 after 24 and 48 hrs.
The test system of another test is Pseudomonas aeruginosa. The experiment in a line: Antibacterial activity against Pseudomonas aeruginosa ATCC 27853 after 20 to 24 hrs.
The subject of test [10] is Staphylococcus aureus. The test can be described thus: Bactericidal activity against methicillin-resistant Staphylococcus aureus clinical isolate after 24 and 48 hrs.
For test [11], the system named is Staphylococcus aureus. The test can be described thus: Antibacterial activity against methicillin-resistant Staphylococcus aureus clinical isolate after 20 to 24 hrs.

Each structure is given as a SMILES string. Values after ≈ are worked out from the molar mass of the structure shown.

With `CC1(C)S[C@@H]2[C@H](NC(=O)[C@H](N)c3ccccc3)C(=O)N2[C@H]1C(=O)O` [AMPICILLIN], the MIC90 against Staphylococcus aureus [1], in the test with Staphylococcus aureus [3], in the test with Staphylococcus aureus [4], in the test with Staphylococcus aureus [6] and against Staphylococcus aureus [11] was 0.3 µM (≈ 0.105 µg/mL) each time. Besides, the MBC against Staphylococcus aureus [2], with Staphylococcus aureus [5], in the test on Staphylococcus aureus [7], against Staphylococcus aureus [9] and with Staphylococcus aureus [10] was 2 µM (≈ 0.699 µg/mL) each time. For the same compound, the MIC (as a rule, the smallest concentration in the dilution series that meets the test's criterion for growth inhibition) in the test with Enterococcus is 11.5 µM (≈ 4.02 µg/mL); against Escherichia coli, 45.8 µM (≈ 16 µg/mL); against Staphylococcus aureus [8], 183 µM (≈ 63.9 µg/mL); against Pseudomonas aeruginosa, 366 µM (≈ 128 µg/mL).

Values taken from ChEMBL document CHEMBL3779887, “Robenidine Analogues as Gram-Positive Antibacterial Agents” (J Med Chem, 2016).
